Some results are limits rather than exact numbers.

This experiment addresses T1, ALK 5 (Homo sapiens, UniProt P36897).
T1 sequence (P36897 34-503): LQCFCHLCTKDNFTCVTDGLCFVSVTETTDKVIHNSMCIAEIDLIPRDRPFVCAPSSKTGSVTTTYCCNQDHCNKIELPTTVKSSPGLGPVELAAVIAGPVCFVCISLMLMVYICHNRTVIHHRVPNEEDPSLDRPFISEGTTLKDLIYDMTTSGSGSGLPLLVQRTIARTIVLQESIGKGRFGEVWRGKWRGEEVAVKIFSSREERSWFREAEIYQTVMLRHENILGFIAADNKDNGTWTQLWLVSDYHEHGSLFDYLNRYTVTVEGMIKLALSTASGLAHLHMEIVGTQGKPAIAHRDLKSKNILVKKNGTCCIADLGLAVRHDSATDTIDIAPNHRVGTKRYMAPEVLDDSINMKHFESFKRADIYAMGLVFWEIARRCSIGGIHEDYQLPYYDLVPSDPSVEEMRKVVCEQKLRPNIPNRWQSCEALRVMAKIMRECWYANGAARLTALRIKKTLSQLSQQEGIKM
The experiment is described as follows: In vitro kinase assay (ALK5 IC50, LanthaScreen Terbium labeled TR-FRET). The class given is biochemical. The settings on record: TGF-β kinase 6 nM, ATP 10 μM, read-out: Enzyme Activity ALK 5 IC50. As to the method:
Compounds of the invention were screened in an in vitro kinase assay against ALK 5, a members of the TGF-β family of Ser/Thr kinases. Standard kinase testing conditions and techniques were employed. IC50 values of compounds against TGF-ß kinase was determined by LanthaScreen™ Terbium Labeled TR-FRET assay. Kinase assays were performed in 1X kinase buffer (# PV6135, Invitrogen, Life Technologies Grand Island, N.Y.) where total reaction volume was 10 μL in low-volume 384-well plates (#4511, Corning). Serially diluted compounds (3-fold) were incubated with TGF-β kinase (6 nM) for 10 min, following which a mixture of ATP (10 μM) (# A1852, Sigma, St-Louis, Mo.) and fluorescent-PolyGT substrate (200 nM); Cat # PV3610, Invitrogen, Life Technologies Grand Island, N.Y.) was added and incubated in dark at room temperature for 1 h. After 1 h, 10 μL stop solution containing Terbium labeled antibody (4 nM; Cat # PV3529, Invitrogen, Life Technologies Grand Island, N.Y.) and EDTA (# E5134, Sigma, St-Louis, Mo.; 20 mM) in TR-FRET dilution buffer (Cat # PV3574, Invitrogen, Life Technologies Grand Island, N.Y.) was added. Readings were taken in a Synergy Neo Plate reader (BioTek, Winooski) at single excitation of 340 nm and Dual emission at 495 nm and 520 nm respectively.
The % activity of test samples was calculated as (Sample-Min)×100/(Max −Min). [Max: DMSO control, complete reaction with enzyme with DMSO and Min: No enzyme with DMSO]. Percent inhibition (100-% activity) was fitted to the “four-parameter logistic model” in XLfit for determination of IC50 values.
For the compound `CC(C)c1[nH]c(=O)c(-c2cc(Cl)ccc2F)cc1Nc1ccnc2[nH]ccc(=O)c12` [Compound 1.59, 5-((5-(5-chloro-2-fluorophenyl)-2-isopropyl-6-oxo-1,6-dihydropyridin-3-yl)amino)-1,8-naphthyridin-4(1H)-one], the IC50 (commonly the concentration that gives 50% inhibition) is greater than 5000 nM.

As for `CCc1[nH]c(=O)c(-c2ccc(F)c(Cl)c2)cc1Nc1ccnc2[nH]ccc12` [Compound 1.90, 5-((1H-pyrrolo[2,3-b]pyridin-4-yl)amino)-3-(3-chloro-4-fluorophenyl)-6-ethylpyridin-2(1H)-one], the IC50 is no more than 500 nM. Under `CC(C)c1[nH]c(=O)c(-c2cc(Cl)ccc2F)cc1Nc1ccnc2c1CCC(=O)N2` [Compound 1.62, 5-((5-(5-chloro-2-fluorophenyl)-2-isopropyl-6-oxo-1,6-dihydropyridin-3-yl)amino)-3,4-dihydro-1,8-naphthyridin-2(1H)-one] stands greater than 5000 nM. Next, `CN(C)c1[nH]c(=O)c(-c2cc(Cl)ccc2F)cc1Nc1ccnc2c1ccn2C` [Compound 1.28, 3-(5-chloro-2-fluorophenyl)-6-(dimethylamino)-5-((1-methyl-1H-pyrrolo[2,3-b]pyridin-4-yl)amino)pyridin-2(1H)-one]: greater than 5000 nM; `CN(C)c1[nH]c(=O)c(-c2cc(Cl)ccc2F)cc1Nc1ccncc1C(F)(F)F` [Compound 1.15, 3-(5-chloro-2-fluorophenyl)-6-(dimethylamino)-5-((3-(trifluoromethyl)pyridin-4-yl)amino)pyridin-2(1H)-one]: greater than 5000 nM. Next, `CC(=O)Nc1cc(Nc2cc(-c3ccccc3CO)c(=O)[nH]c2C(C)C)ccn1` [Compound 1.53, N-(4-((5-(2-(hydroxymethyl)phenyl)-2-isopropyl-6-oxo-1,6-dihydropyridin-3-yl)amino)pyridin-2-yl)acetamide]: greater than 5000 nM; `CC(C)c1[nH]c(=O)c(-c2cc(Cl)ccc2F)cc1Nc1ccncc1C(=O)N[C@@H](C)CO` [Compound 1.6]: 500 to 2000 nM; `CCc1[nH]c(=O)c(-c2ccc(F)c(Cl)c2)cc1Nc1ccnc(NC(C)=O)c1` [Compound 1.88, N-(4-((5-(3-chloro-4-fluorophenyl)-2-ethyl-6-oxo-1,6-dihydropyridin-3-yl)amino)pyridin-2-yl)acetamide]: no more than 500 nM. Consider `CN(C)c1[nH]c(=O)c(-c2cc(Cl)ccc2F)cc1Nc1ccnc2ccncc12` [Compound 1.37, 5-((1,6-naphthyridin-4-yl)amino)-3-(5-chloro-2-fluorophenyl)-6-(dimethylamino)pyridin-2(1H)-one], for which the IC50 was in the range of 2000 to 5000 nM.

With `C[C@@H](O)CNC(=O)c1cnccc1Nc1cc(-c2cc(Cl)ccc2F)c(=O)n2c1N(C)CCC2` [Compound 1.26, (R)-4-((7-(5-chloro-2-fluorophenyl)-1-methyl-6-oxo-1,3,4,6-tetrahydro-2H-pyrido[1,2-a]pyrimidin-9-yl)amino)-N-(2-hydroxypropyl)nicotinamide], the IC50 is greater than 5000 nM. Regarding `CC(=O)Nc1cc(Nc2cc(-c3ccsc3)c(=O)[nH]c2C(C)C)ccn1` [Compound 1.79, N-(4-((2-isopropyl-6-oxo-5-(thiophen-3-yl)-1,6-dihydropyridin-3-yl)amino)pyridin-2-yl)acetamide], the IC50 is no more than 500 nM.

With `CN(C)c1[nH]c(=O)c(-c2cc(Cl)ccc2F)cc1Nc1ccnc2cc(C(F)(F)F)ccc12` [Compound 1.33, 3-(5-chloro-2-fluorophenyl)-6-(dimethylamino)-5-((7-(trifluoromethyl)quinolin-4-yl)amino)pyridin-2(1H)-one], the IC50 lay within 2000 to 5000 nM.

Turning to `CC(=O)Nc1cc(Nc2cc(-c3cccc(C#N)c3)c(=O)[nH]c2C(C)C)ccn1` [Compound 1.54, N-(4-((5-(3-cyanophenyl)-2-isopropyl-6-oxo-1,6-dihydropyridin-3-yl)amino)pyridin-2-yl)acetamide], the concentration for half-maximal inhibition (IC50) fell in the range of 500 to 2000 nM.

These data come from patent publication US20200247812A1 (Integral Biosciences Private Limited, priority 2018, published 2020).
